Reference: PubChem BioAssay AID434951 (Broad Institute, 2010)
Active and inactive are the calls of the source.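 The calls were made as follows: active = a fitted half-maximal concentration EC50 for the rise in nuclear signal no higher than ten times the top dose tested; inconclusive = flat fit with activity between 30% and 70%, or unusable fit; inactive = EC50 beyond ten times the top dose.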

target: Hypoxia-inducible factor 1-alpha (Homo sapiens) (UniProt Q16665); assay: HIF pathway activation, GFP-HIF1alpha translocation – imaging, fluorescence, U2OS GFP-HIF1alpha, confirmation (AID 434951); details: U2OS GFP-HIF1alpha nuclear intensity, high-content imaging
Sequence (Q16665 whole entry, looked up): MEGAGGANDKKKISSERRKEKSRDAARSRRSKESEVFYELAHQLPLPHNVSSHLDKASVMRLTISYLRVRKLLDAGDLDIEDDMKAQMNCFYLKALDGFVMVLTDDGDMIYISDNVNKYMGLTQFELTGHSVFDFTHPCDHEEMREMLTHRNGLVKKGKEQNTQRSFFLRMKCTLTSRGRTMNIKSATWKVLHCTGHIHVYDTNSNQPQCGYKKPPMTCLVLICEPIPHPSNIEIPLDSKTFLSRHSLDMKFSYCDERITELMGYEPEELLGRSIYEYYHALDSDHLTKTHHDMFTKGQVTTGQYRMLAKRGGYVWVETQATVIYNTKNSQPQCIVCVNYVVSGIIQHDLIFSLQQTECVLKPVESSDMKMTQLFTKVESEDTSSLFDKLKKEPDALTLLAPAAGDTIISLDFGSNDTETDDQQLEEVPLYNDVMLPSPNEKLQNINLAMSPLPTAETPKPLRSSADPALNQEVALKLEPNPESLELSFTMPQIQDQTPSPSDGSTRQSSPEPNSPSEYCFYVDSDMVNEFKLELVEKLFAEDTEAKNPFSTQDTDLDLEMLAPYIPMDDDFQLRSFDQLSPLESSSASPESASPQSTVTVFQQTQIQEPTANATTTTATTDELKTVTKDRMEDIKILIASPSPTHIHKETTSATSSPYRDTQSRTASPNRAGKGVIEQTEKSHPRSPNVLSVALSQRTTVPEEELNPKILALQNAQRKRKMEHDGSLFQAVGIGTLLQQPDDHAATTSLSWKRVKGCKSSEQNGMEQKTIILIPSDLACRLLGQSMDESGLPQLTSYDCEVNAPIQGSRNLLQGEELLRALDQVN

Row | SMILES | EC50
1 | CCC(=O)NC(c1ccc(Cl)cc1Cl)c1ccc2cccnc2c1O (stereo not drawn) | 6.22 µM
2 | Nc1nc2nc(-c3cccs3)cc(C(F)(F)F)n2n1 | > 35 µM (inactive)
3 | CC(=O)Cn1c(=O)c2c(nc3n2CCCN3Cc2ccccc2)n(C)c1=O | > 35 µM (inactive)
4 | CCN(CC)c1ccc(/C=N/NC(=O)c2cccc(S(=O)(=O)N3CCOCC3)c2)c(O)c1 | 1.13 µM
5 | O=C(CSc1nnc(-c2ccncc2)o1)N1CCCCCC1 | > 35 µM (inactive)
6 | COc1ccc(C(NC(=O)C(C)C)c2ccc3cccnc3c2O)cc1 (stereo not drawn) | 2.66 µM
7 | COCc1nnc(NC(=O)c2cc(Cl)ccc2OC)s1 | > 35 µM (inactive)
8 | Cc1cc(SCC(=O)N/N=C/c2ccccc2C(=O)O)c(C)cc1Br | > 35 µM (inactive)
9 | CCCCC(=O)NC(c1cccs1)c1cc(Cl)c2cccnc2c1O (stereo not drawn) | > 35 µM (inactive)
10 | Cc1ccc(C(=O)CSc2ccc(-c3ccncc3)nn2)cc1 | > 35 µM (inactive)
11 | c1ccc(N=Nc2ccc3cccccc2-3)cc1 | 33.1 µM
12 | CCOc1ccc(/C=N/NC(=O)c2[nH]ncc2Br)c(O)c1 | 10.2 µM
13 | Cc1cc(C)nc(Sc2ncnc(N)c2[N+](=O)[O-])n1 | 20.6 µM
14 | Nc1nc(-c2ccccn2)nc(N)c1Cc1ccc(Cl)cc1Cl | 6.12 µM
15 | COc1ccc(N2C(=O)[C@@H]3C(c4cccnc4)=NO[C@@H]3C2=O)cc1 | > 35 µM (inactive)
16 | O=C(N/N=C/c1sc2ccccc2c1O)c1cccc2ccccc12 | 31.4 µM
17 | CCN(CC)S(=O)(=O)c1ccc(N/N=C(\C)c2ccc(OC)cc2O)nc1 | 7.86 µM
18 | Cc1cccc(C)c1Nc1c(-c2ccccn2)nc2ccccn12 | 3.28 µM
19 | CC(=O)Nc1nc(C)c(-c2csc(Nc3ccccn3)n2)s1 | > 35 µM (inactive)
20 | COc1cccc(OCc2cc(C(=O)N3CCN(c4ccccc4OC)CC3)no2)c1 | > 35 µM (inactive)
21 | Cc1ccccc1OCC(=O)Nc1ccc(N2CCN(C)CC2)c(Cl)c1 | > 35 µM (inactive)
22 | COc1cc(/C=C/C(=O)c2ccc3c(c2)OCCO3)cc(Br)c1OCC(=O)N(C)C | > 35 µM (inactive)

Row | SMILES | EC50
23 | Nc1nc(SCC(=O)N2CCCC2)[nH]c(=O)c1-c1ccccc1 | > 35 µM (inactive)
24 | CCC(Cc1ccccc1)n1c(=S)[nH]c2ccccc2c1=O (stereo not drawn) | > 35 µM (inactive)
25 | O=C(c1cccnc1)c1cc2ccccc2[nH]1 | > 35 µM (inactive)
26 | CC1CC(C)CN(S(=O)(=O)c2ccc3c(c2)oc(=O)n3CC(=O)NCCCOC(C)C)C1 (stereo not drawn) | > 35 µM (inactive)
27 | Cc1cc([N+](=O)[O-])nn1Cc1ccc(C(=O)N/N=C/c2ccc(O)cc2O)cc1 | 22.4 µM
28 | Cc1ccc(/C(=N/Nc2ncnc3ccccc23)C(=O)O)cc1 | > 35 µM (inactive)
29 | O=C(N/N=C\c1cc(Br)ccc1O)c1ccc(S(=O)(=O)N2CCCCC2)cc1 | 6.74 µM
30 | COC(=O)CC1C(=O)NCCN1C(=O)CSc1nnc(Nc2ccc(OC)cc2)s1 (stereo not drawn) | > 35 µM (inactive)
31 | C=CCN1C(=O)c2ccccc2Sc2ccc(C(=O)N3CCN(C)CC3)cc21 | > 35 µM (inactive)
32 | Cn1c(CO)nc2c3ccccc3ccc21 | > 35 µM (inactive)
33 | CC(OC(=O)c1ncc(Cl)c(Cl)c1Cl)C(=O)NC1(C#N)CCCCC1 (stereo not drawn) | 17.4 µM
34 | CN(C1CCCC1)C1CCN(C(=S)Nc2cc(F)cc(F)c2)CC1 | > 35 µM (inactive)
35 | Cc1ccc(Nc2c(-c3ccccn3)nc3ccc(C)cn23)cc1 | 6.14 µM
36 | Cn1ncc(Cl)c1C(=O)Nc1nc2ccc(Cl)cc2s1 | > 35 µM (inactive)
37 | COc1cnc(-c2ccccn2)nc1N(C)C | 5.92 µM
38 | Fc1ccc(CSc2ccc(-c3ccco3)nn2)cc1 | > 35 µM (inactive)
39 | O=C(O)c1ccc(N2C(=O)CSC2=S)cc1 | > 35 µM (inactive)
40 | O=C(Nc1ccccc1O)c1ccc(NS(=O)(=O)c2cccc3cccnc23)cc1 | 6.84 µM
41 | Cn1nc(C(=O)NCCCN2CCCCC2)c2c1-c1ccccc1S(=O)(=O)C2 | > 35 µM (inactive)
42 | FC(F)(F)c1ccc(CSc2ccccn2)cc1 | > 35 µM (inactive)
43 | CC(C)(C)NC(=O)CN(Cc1ccc2c(c1)OCO2)C(=O)CNS(=O)(=O)c1ccc(F)cc1 | > 35 µM (inactive)
